# Data: patent publication US8211912B2, “Compositions and methods for effecting NAD+ levels using a nicotinamide phosphoribosyl tranferase inhibitor” (Gemin X Pharmaceuticals Canada, priority 2007, dated 2012)
# “And” between values parts separate entries of the source, which are not always exact repeats. Equal entries are not always repeated. Where two headings read alike, the source gives them in different places.
# How the values were obtained:
# [1] = system: DMS-114 human small cell lung carcinoma cells; assay: Sensitization to DNA damaging chemotherapeutic agents, relative ATP viability, 3 days; assay type: cell-based; settings: for Fold change (IC50 in DMS-114 cells): without vs with 0.75 nM Compound 1
# Experimental: (§3) Cells were plated in logarithmic growth phase at 500-20,000 cells per well in 96-well clear bottom plates (Corning; Corning, N.Y.) and cultured for 14 to 16 hours prior to the start of drug treatment. Serial dilutions of Compound 2 and Compound 1 were made in DMSO, diluted 1:50 in RPMI-1640 (Hyclone; Logan, Utah) and then added to tissue culture media at a final concentration of 0.2% DMSO. […] Relative ATP levels were determined by the bioluminescent measuring of cellular ATP levels in each culture well with the ViaLight-HS High Sensitivity Cytotoxicity and Cell Proliferation BioAssay Kit (Cambrex Bioproducts, Cat. No. LT07-311; Charles City, Iowa) according to manufacturer's instructions. Briefly, a cell permeabilizing reagent was added to each culture well in media at the time of viability determination, allowing free ATP to be released from viable cells in the culture. Addition of luciferase to the mixture catalyzes the release of light proportional to the amount of free ATP present, which can then be quantified in a Centro LB 960 luminometer (EG&G Berthold; Oak Ridge, Tenn.); the level of ATP is generally directly proportional to the viability of the cells.
# (§4) Sigmoidal dose response curves were then generated using non-linear regression analysis of variable slope by Prism Version 4.00 for Windows (GraphPad Software, Inc.; San Diego, Calif.) and IC50 values calculated.
# (§5) The IC50 values for the treatment with the DNA damaging agent were calculated relative to control cells that were treated with DMSO only.
# [2] = system: Jurkat human T cell leukemia cells; assay: as above; settings: for Fold change (IC50 in Jurkat cells): without vs with 0.5 nM Compound 1
# Experimental: as §3, §4, §5
# [3] = Additional combination experiments with Compound 1; assay type: cell-based
# [4] = Nicotinic acid as antidote to a lethal 24 h infusion of Compound 2 in non-tumor-bearing mice; settings: Compound 2 650 mg/kg 24 h infusion
# Experimental: CB17 SCID female mice, 5 mice per group, who were not bearing tumors were administered a lethal dose of Compound 2 as a 24 h infusion of Compound 2 at 650 mg/kg. Thereafter, mice were infused with saline for 24 h (Group 1); a niacin solution (12 mg/mL) for 4 hours at a dose of 90 mg/m2/h (30 mg/kg/h) followed by saline for another 20 h at a flow rate of 50 μL/h (Group 2); or a niacin solution (12 mg/mL) for 24 hours at a dose of 90 mg/m^2/h (30 mg/kg/h) with a flow rate of 50 μL/h.
# [5] = system: human multiple myeloma IM-9 cancer cells; assay: Xenograft of a cancer not deficient in nicotinic acid pathway; assay type: in vivo, CB17 SCID mice
# Experimental: (§1) Human multiple myeloma IM-9 cancer cells were maintained in RPMI (Hyclone, Utah, USA) supplemented with 10% inactivated fetal bovine serum (Bio-Whittaker; MD, USA) and 1% penicillin-streptomycin-L-Glutamine (Gibco; NY, USA), under 5% CO2 at 37° C. IM-9 cells were transplanted subcutaneously into the flank of female mice. Each mouse was inoculated with a suspension of 10×10^6 tumors cells per 100 μl in PBS on day zero.
# Treatments started on day eight after IM-9 cells transplantation. […] The control group was treated with vehicle (0.9% NaCl) alone for 104 hours. […] Compound 2 was prepared fresh for dosing and formulated in a vehicle solution of 10 mM citrate buffer at pH 4.8.
# Observation continued for 23 days after initial tumor implantation.
# [6] = system: Human Fibrosarcoma HT1080 cancer cells; assay: Xenograft of a cancer deficient in nicotinic acid pathway; assay type: in vivo, mice
# Experimental: as §1, with “Fibrosarcoma HT1080” for “multiple myeloma IM-9”, “(Bio-Whittaker, Md.,” for “(Bio-Whittaker; MD,”, “HT1080” for “IM-9”, “1×10^6” for “10×10^6”
# Treatments started on day fifteen after HT1080 cells transplantation. […] The control group was treated with vehicle (0.9% NaCl) alone for 104 hours. Treatments were conducted using Lomir External pump—Model 220 with a flow rate of 50 μL/hr (˜2.5 mL/kg/hr) and equipped with 1 cc syringes for treated groups or equipped with 10 cc syringes for the control group. Compound 2 was prepared fresh for dosing and formulated in a vehicle solution of 10 mM citrate buffer at pH 4.8.
# Observation continued for 22 days after initial tumor implantation.
# [7] = Nicotinic acid pre-treatment against lethal intramuscular Compound 2 in non-tumor-bearing mice
# human NMPRT = human NMPRT (Homo sapiens, UniProt P43490); settings: cited from earlier work
# HeLa cells = settings: Compound 1 20 nM, NM contained 0.1% NA
# Experimental: (§2) Viability was measured after 72 hours by ViaLight assay (assessing ATP levels). […] Each bar is the mean±SD of quadruplicate samples. Each figure is representative of two independent experiments.
# Viability was measured after 72 hours by ViaLight assay. […] Each point represents the mean and error bars the SD of triplicate samples. […] The concentration of nicotinamide in RPMI 1640 media was […]. HeLa cells were transiently transfected with vector (pcDNA3) or a plasmid expressing a flag-tagged yeast PNC1 gene (pcFLAG-PNC1). […] Relative viability was assessed after 72 hours by ViaLight assay.
# [8] = system: NAD^+ levels in HeLa cells; settings: Compound 1 100 nM, 10 mM nicotinic acid
# Experimental: as §2
# [9] = system: NF-κB regulated gene expression in HeLa cells; settings: Compound 1 100 nM, 10 mM nicotinic acid, 24 hrs then 4 hours TNFα
# Experimental: as §2
# [10] = system: SW982 synovial sarcoma cell line; settings: 0.01, 0.1 and 1 mM nicotinic acid
# Description: In FIGS. 10 and 11, fraction of cell survived is indicated by the vertical axis (labeled as “% control”).
# [11] = system: Hs821.T giant cell sarcome; settings: 0.01, 0.1 and 1 mM nicotinic acid
# U-2OS osteosarcome = settings: 0.01, 0.1 and 1 mM nicotinic acid
# HT1080 fibrosarcoma = settings: 0.01, 0.1 and 1 mM nicotinic acid
# GCT MFH histiocytoma = settings: 0.01, 0.1 and 1 mM nicotinic acid
# SW1353 chondrosarcoma = settings: 0.01, 0.1 and 1 mM nicotinic acid
# A204 rhabdomyosarcoma = settings: 0.01, 0.1 and 1 mM nicotinic acid
# MG-63 osteosarcoma = settings: 0.01, 0.1 and 1 mM nicotinic acid
# IMR32 (neuroblastoma) = settings: 0.01, 0.1 and 1 mM nicotinic acid
# T98G (glioblastoma) = settings: 0.01, 0.1 and 1 mM nicotinic acid
# [12] = system: colon cancer cell line Colo320DM; settings: the only one of fourteen other carcinomas
# [13] = read-out: IC50 in DMS-114 cells (μM), DNA damaging chemotherapeutic agent + 0.75 nM Compound 1, with 0.75 nM Compound 1, 3 days, relative to Compound 1 only control
# [14] = read-out: IC50 in Jurkat cells (μM), DNA damaging chemotherapeutic agent + 0.5 nM Compound 1, with 0.5 nM Compound 1, 3 days, relative to Compound 1 only control
# [15] = Homo sapiens, DMS-114, 72 h, read-out: IC50 in DMS-114 cells (μM), DNA damaging chemotherapeutic agent + No Compound 1, agent alone, 3 days, relative to DMSO control
# [16] = Homo sapiens, Jurkat, 72 h, read-out: IC50 in Jurkat cells (μM), DNA damaging chemotherapeutic agent + No Compound 1
# Sequence of human NMPRT (P43490 whole entry): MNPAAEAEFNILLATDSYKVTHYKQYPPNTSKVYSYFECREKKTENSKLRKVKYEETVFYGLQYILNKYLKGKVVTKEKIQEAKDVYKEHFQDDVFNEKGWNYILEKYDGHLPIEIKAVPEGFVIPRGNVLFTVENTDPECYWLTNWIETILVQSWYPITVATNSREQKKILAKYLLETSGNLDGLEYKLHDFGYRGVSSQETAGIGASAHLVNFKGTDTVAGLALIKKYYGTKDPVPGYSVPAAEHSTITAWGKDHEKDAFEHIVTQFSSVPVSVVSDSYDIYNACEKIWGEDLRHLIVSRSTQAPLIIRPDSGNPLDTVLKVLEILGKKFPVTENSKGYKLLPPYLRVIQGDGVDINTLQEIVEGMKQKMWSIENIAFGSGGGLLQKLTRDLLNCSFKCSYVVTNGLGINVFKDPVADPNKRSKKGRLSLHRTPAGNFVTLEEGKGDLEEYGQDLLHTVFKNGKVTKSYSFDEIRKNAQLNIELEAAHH
smiles,measurement,setting,value
CN(N=O)C(=O)N[C@H]1C(O)O[C@H](CO)[C@@H](O)[C@@H]1O (mixture of isomers) [Streptozotocin],IC50,[1]; [13],391 ± 152 µM
same,IC50,"[1]; read-out: IC50 in DMS-114 cells (μM), DNA damaging chemotherapeutic agent + No Compound 1, agent alone, 3 days, relative to DMSO control",3960 ± 2270 µM
same,IC50,[2]; [14],360 ± 304 µM
same,IC50,"[2]; read-out: IC50 in Jurkat cells (μM), DNA damaging chemotherapeutic agent + No Compound 1, agent alone, 3 days, relative to DMSO control",1014 ± 10 µM
Sc1ncnc2nc[nH]c12 [6-Mercaptopurine],Combination effect in the presence of Compound 1,[3],less than additive effect
O=NN(CCCl)C(=O)NCCCl [Carmustine],IC50,[1]; [15],33.3 ± 7.3 µM
same,IC50,[1]; [13],11.5 ± 3.6 µM
same,Fold change (IC50 in DMS-114 cells),[1],6.12 ± 7.5
same,IC50,[2]; [16],2.97 ± 1.1 µM
same,IC50,[2]; [14],3.13 ± 0.49 µM
same,Fold change (IC50 in Jurkat cells),[2],0.93 ± 0.21
"COCCOCCOCCOCCOC(=O)OC[n+]1ccc(NC(=NC#N)NCCCCCCOc2ccc(Cl)cc2)cc1.[Cl-] [Compound 2, 1-[2-(2-(2-(2-Methoxyethoxy)-ethoxy)-ethoxy)-ethoxy-carbonyloxymethyl]-4-[N′-cyano-N″-(6-(4-chlorophenoxy)-hexyl)-N-guanidino]-pyridinium chloride]",Mortality by day 5,[4]; then nicotinic acid 90 mg/m^2/h for 4 h (Group 2),0/4
same,Mortality by day 5,[4]; then nicotinic acid 90 mg/m^2/h for 24 h (Group 3),0/5
same,Mortality by day 5,"[4]; then saline, no nicotinic acid (Group 1), 650 mg/kg",3 of the 5 and 3/5
same,Tumor growth compared to vehicle,"[5]; Compound 2 150 mg/kg IV 24 hours infusion from day eight, observation 23 days",statistically significant reduction in tumor growth
same,Tumor growth compared to vehicle,"[6]; Compound 2 150 mg/kg IV 24 hours infusion from day fifteen, observation 22 days",statistically significant reduction in tumor growth
same,Tumor growth compared to vehicle,[6]; Compound 2 650 mg/kg IV 24 hours infusion,significant reduction in tumor growth
same,Mortality in treatment group,"[6]; Compound 2 650 mg/kg IV 24 hours infusion, tumor-bearing mice",mortality of a mouse in this treatment group
same,Mortality by day 11,"[7]; Compound 2 250 mg/kg intramuscular QD × 5, no nicotinic acid, 250 mg/kg",3 of the 5 and 3/5
same,Mortality by day 11,"[7]; Compound 2 250 mg/kg intramuscular QD × 5, nicotinic acid pre-treatment 200 mg/kg IV QD × 5",0/5
same,Mortality by day 11,"[7]; Compound 2 250 mg/kg intramuscular QD × 5, nicotinic acid pre-treatment 200 mg/kg PO QD × 5",0/5
same,Mortality by day 11,"[7]; Compound 2 250 mg/kg intramuscular QD × 5, nicotinic acid pre-treatment 200 mg/kg SC QD × 5",0/5
O=P1(N(CCCl)CCCl)NCCCO1 (stereo not shown) [Cyclophosphamide],Combination effect in the presence of Compound 1,[3],less than additive effect
"O=C(/C=C/c1cccnc1)NCCCCC1CCN(C(=O)c2ccccc2)CC1 [FK866, (E)-N-[4-(1-benzoylpiperidin-4-yl)butyl]-3-(pyridin-3-yl)acrylamide]",Inhibition of human NMPRT,human NMPRT,potent
CC(=O)O[C@H]1C(=O)[C@@]2(C)[C@H]([C@H](OC(=O)c3ccccc3)[C@]3(O)C[C@H](OC(=O)[C@H](O)[C@@H](NC(=O)c4ccccc4)c4ccccc4)C(C)=C1C3(C)C)[C@]1(OC(C)=O)CO[C@@H]1C[C@@H]2O [Paclitaxel],Combination effect in the presence of Compound 1,[3],less than additive effect
CNNCc1ccc(C(=O)NC(C)C)cc1 [Procarbazine],Combination effect in the presence of Compound 1,[3],less than additive effect
NC(=O)c1ncn([C@@H]2O[C@H](CO)[C@@H](O)[C@H]2O)n1 [Ribavirin],IC50,[1]; [15],172 µM
same,IC50,[1]; [13],173 µM
same,Fold change (IC50 in DMS-114 cells),[1],0.99
same,IC50,[2]; [16],63.3 ± 10 µM
same,IC50,[2]; [14],15.5 ± 3.1 µM
same,Fold change (IC50 in Jurkat cells),[2],4.09 ± 0.16
Cn1nnc2c(C(N)=O)ncn2c1=O [Temozolomide],IC50,[1]; [15],339 ± 190 µM
same,IC50,[1]; [13],50.1 ± 7.83 µM
same,Fold change (IC50 in DMS-114 cells),[1],2.53 ± .11
same,IC50,[2]; [16],212 ± 135 µM
same,IC50,[2]; [14],158 ± 125 µM
same,Fold change (IC50 in Jurkat cells),[2],1.46 ± 0.26
NC(=O)c1cccnc1 [nicotinamide],Concentrations rescuing viability relative to those required for NA rescue,HeLa cells,"1,000 ×"
O=C(O)c1cccnc1 [nicotinic acid],Rescue from decline in NAD^+ levels,[8],can rescue
same,Rescue from NF-κB inhibition,[9],can rescue
same,Rescue from Compound 1 induced cytotoxicity by nicotinic acid,[10],rescue
same,Effect of nicotinic acid on the anti-tumor activity of Compound 2,[5]; nicotinic acid 120 mg/kg 4 hours infusion after Compound 2 150 mg/kg,able to inhibit the anti-tumor activity of Compound 2
same,Effect of niacin on the anti-tumor activity of Compound 2,[6]; niacin 120 mg/kg 4 hours after Compound 2 150 mg/kg,unable to inhibit the anti-tumor activity of Compound 2
same,Effect of niacin on the anti-tumor activity of Compound 2,[6]; niacin 120 mg/kg 4 hours after Compound 2 650 mg/kg,did not inhibit the anti-tumor activity of Compound 2
same,Percentage of sarcomas not being rescued,"cancer cell lines; 13 sarcoma cell lines, Compound 1 with nicotinic acid",60%
same,Neuroblastoma and glioblastoma cell lines not rescued by nicotinic acid,cancer cell lines; Compound 1 induced cytotoxicity,Two out of three
same,Number of sarcoma cell lines not rescued by nicotinic acid,"cancer cell lines; out of 13 sarcoma cell lines tested, Compound 1 with 0.01, 0.1 and 1 mM nicotinic acid",8
same,Rescue from Compound 1 induced cytotoxicity by nicotinic acid,[11],not rescued
same,Rescue from Compound 1 induced cytotoxicity by nicotinic acid,U-2OS osteosarcome,not rescued
same,Rescue from Compound 1 induced cytotoxicity by nicotinic acid,HT1080 fibrosarcoma,not rescued
same,Rescue from Compound 1 induced cytotoxicity by nicotinic acid,GCT MFH histiocytoma,not rescued
same,Rescue from Compound 1 induced cytotoxicity by nicotinic acid,SW1353 chondrosarcoma,not rescued
same,Rescue from Compound 1 induced cytotoxicity by nicotinic acid,A204 rhabdomyosarcoma,not rescued
same,Rescue from Compound 1 induced cytotoxicity by nicotinic acid,MG-63 osteosarcoma,not rescued
same,Rescue from Compound 1 induced cytotoxicity by nicotinic acid,IMR32 (neuroblastoma),not rescued
same,Rescue from Compound 1 induced cytotoxicity by nicotinic acid,T98G (glioblastoma),not rescued
same,Rescue from Compound 1 induced cytotoxicity by nicotinic acid,[12],not rescued
